Measurements from patent US20250281507A1, “METHODS OF TREATING NEPHROTIC SYNDROME” (The Research Institute at Nationwide Children's Hospital, priority 2021, published 2025).
Values joined by “and” are separate entries in the source; they are usually repeats but may differ in a detail not shown here. Identical values can stand only once.

Test system: children with NS
Experiment: Proteinuria (urine protein to creatinine ratio, UPCR) before and after addition of pioglitazone
Assay type: in vivo, human
Excerpt: In the following clinical studies, the efficacy and safety of adding pioglitazone to reduce proteinuria in children with NS was examined. All children with NS identified worldwide to have been treated with pioglitazone were included, with no patients excluded. Each patient had pioglitazone added to their other NS medications at the discretion of their treating pediatric nephrologist. All patient records were reviewed in a de-identified manner, with prior ethics committee approval at each institution. Data were analyzed based on defined time periods before and after the addition of pioglitazone. Patients were defined as having responded to pioglitazone (i.e., Responders) if their urine protein to creatinine ratio (UPCR, mg/mg) decreased from the period 0-1 month pre-pioglitazone to the period 0-1 month post-pioglitazone. Glomerular filtration rate estimation (eGFR) in patients <18 years was calculated using the revised Schwartz equation. In patients >18 years, eGFR was calculated as the mean of the revised Schwartz and CKD-EPI creatinine equations. Quantitative data, such as patient age, duration of NS, pioglitazone dosage, and outcomes of UPCR, TIS, and serum albumin, were summarized as means (standard errors of mean), while categorical data such as renal survival status were summarized as frequency (percent). Due to a small sample size, Responders and Non-responders were compared using Wilcoxon Rank Sum tests on quantitative variables and Fisher's exact tests on categorical variables. For both Responders and Non-responders, pre-pioglitazone to post-pioglitazone initiation changes in UPCR, TIS, and serum albumin levels were analyzed using Wilcoxon Signed Rank tests. Numbers of hospitalizations pre-pioglitazone and post-pioglitazone initiation were analyzed and compared using Poisson distributions. Statistical significance was assessed at both the 0.05 and 0.10 levels. All analyses were conducted using SPSS software ver. 26 (IBM, Armonk, NY, USA).

[1] = Patient 1 (Responder), pre-PIO 8.5
[2] = Patient 1 (Responder), vs 0-1 mo pre-PIO
[3] = Patient 2 (Responder), pre-PIO 6
[4] = Patient 2 (Responder), vs 0-1 mo pre-PIO
[5] = Patient 3 (Responder), pre-PIO 11.2
[6] = Patient 3 (Responder), vs 0-1 mo pre-PIO
[7] = Patient 5 (Non-responder), pre-PIO 0.46
[8] = Patient 5 (Non-responder), vs 0-1 mo pre-PIO
[9] = Patient 6 (Responder), pre-PIO 2.16
[10] = Patient 6 (Responder), vs 0-1 mo pre-PIO
[11] = Patient 7 (Non-responder), pre-PIO 7.5
[12] = Patient 7 (Non-responder), vs 0-1 mo pre-PIO
[13] = Patient 8 (Responder), pre-PIO 4.66
[14] = Patient 8 (Responder), vs 0-1 mo pre-PIO
[15] = mean of 5 Responders, pre-PIO 6.50
[16] = mean of 5 Responders, vs 0-1 mo pre-PIO

Compound: CCc1ccc(CCOc2ccc(CC3SC(=O)NC3=O)cc2)nc1 (centres unmarked) [pioglitazone]
- UPCR in Responders, range (5-7 months post-pioglitazone): 0.06 to 0.5 mg/mg
- Patients with prompt and significant reductions in proteinuria (Responders) (Five of 8 pioglitazone-treated patients, UPCR decrease 0-1 mo pre- to 0-1 mo post-pioglitazone): 63%
- Post-PIO UPCR (0-1 mo; mg/mg) [1]: 4 mg/mg
- Post-PIO UPCR (5-7 mo; mg/mg) [1]: 0.2 mg/mg
- % UPCR Reduction (0-1 mo) [2]: 53% and 52.9%
- % UPCR Reduction (5-7 mo) [2]: 98% and 97.6%
- Post-PIO UPCR (0-1 mo; mg/mg) [3]: 2 mg/mg
- Post-PIO UPCR (5-7 mo; mg/mg) [3]: 0.12 mg/mg
- % UPCR Reduction (0-1 mo) [4]: 67% and 66.7%
- % UPCR Reduction (5-7 mo) [4]: 98%
- Post-PIO UPCR (0-1 mo; mg/mg) [5]: 6.4 mg/mg
- Post-PIO UPCR (5-7 mo; mg/mg) [5]: 0.5 mg/mg
- % UPCR Reduction (0-1 mo) [6]: 43% and 42.9%
- % UPCR Reduction (5-7 mo) [6]: 96% and 95% and 95.5%
- UPCR increase (Patient 4 (Non-responder), over the next 1 month): 133%
- Post-PIO UPCR (0-1 mo; mg/mg) (Patient 4 (Non-responder), pre-PIO 28.8, urine obtained soon after IV albumin infusion): 67.0 mg/mg and 67 mg/mg
- % UPCR Reduction (0-1 mo) (Patient 4 (Non-responder), vs 0-1 mo pre-PIO): −133%
- UPCR increase (Patient 5 (Non-responder), 1-month post-PIO): 139%
- increase in proteinuria (UPCR) (Patient 5 (Non-responder), 5-7 months post-pioglitazone): 24%
- Post-PIO UPCR (0-1 mo; mg/mg) [7]: 1.1 mg/mg
- Post-PIO UPCR (5-7 mo; mg/mg) [7]: 0.57 mg/mg
- % UPCR Reduction (0-1 mo) [8]: −139%
- % UPCR Reduction (5-7 mo) [8]: −23.9%
- Post-PIO UPCR (0-1 mo; mg/mg) [9]: 1.09 mg/mg
- Post-PIO UPCR (5-7 mo; mg/mg) [9]: 0.11 mg/mg
- % UPCR Reduction (0-1 mo) [10]: 50% and 49.5%
- % UPCR Reduction (5-7 mo) [10]: 95% and 94.9%
- increase in proteinuria (UPCR) (Patient 7 (Non-responder), 5-7 months post-pioglitazone): 77%
- UPCR increase (Patient 7 (Non-responder), over the next 1 month): 13%
- Post-PIO UPCR (0-1 mo; mg/mg) [11]: 8.5 mg/mg
- Post-PIO UPCR (5-7 mo; mg/mg) [11]: 13.3 mg/mg
- % UPCR Reduction (0-1 mo) [12]: −13.3%
- % UPCR Reduction (5-7 mo) [12]: 77.3%
- Post-PIO UPCR (0-1 mo; mg/mg) [13]: 0.08 mg/mg
- Post-PIO UPCR (5-7 mo; mg/mg) [13]: 0.06 mg/mg
- % UPCR Reduction (0-1 mo) [14]: 98% and 98.3%
- % UPCR Reduction (5-7 mo) [14]: 99% and 98.7%
- Post-PIO UPCR (0-1 mo; mg/mg), Mean (SEM) [15]: 2.7 mg/mg and 2.71 mg/mg
- Post-PIO UPCR (5-7 mo; mg/mg), Mean (SEM) [15]: 0.2 mg/mg and 0.20 mg/mg
- % UPCR Reduction (0-1 mo), Mean (SEM) [16]: 62% and 62.1%
- % UPCR Reduction (5-7 mo), Mean (SEM) [16]: 97%
- Post-PIO UPCR (5-7 mo; mg/mg), Mean (SEM) (mean of Non-responders (Patient 4 ESRD)): 6.94 mg/mg
- % UPCR Reduction (5-7 mo), Mean (SEM) (mean of Non-responders (Patient 4 NA)): −50.6%
- Post-PIO UPCR (0-1 mo; mg/mg), Mean (SEM) (mean of Non-responders, pre-PIO 12.3): 25.5 mg/mg
- % UPCR Reduction (0-1 mo), Mean (SEM) (mean of Non-responders, vs 0-1 mo pre-PIO): −95.0%
- UPCR reduction in Responders, range (within the first month of pioglitazone treatment): 43-98%
- UPCR in Responders, range (within the first month of pioglitazone treatment, pre range 2.2-11.2): 0.1 to 6.4 mg/mg
